The text below walks through data of patent US20160162632A1, “METHOD OF SCREENING REACTIONS OR BIOLOGICAL PATHWAYS INDUCED BY COMPOUND” (Samsung Electronics Co., Ltd., priority 2014, published 2016).

Structures are written as SMILES.

The assay has as its system biochemical pathways with which genes with a change in expression level are associated. As to the kind of experiment: Selection among predicted reactions using differentially expressed genes (DEGs) by dapsone and DAVID pathway annotation. Particulars: reaction included in the "arginine and prolyl metabolism" pathway from DEGs; FIG. 7. In kind it is cell-based. From the text: Genes that are differentially expressed (differentially expressed genes, DEGs) by dapsone were experimentally determined. Information about biochemical pathways to which the DEGs are involved was obtained by a functional annotation tool of bioinformatics resources (DAVID Bioinformatics Resources version 6.7 operated by the National Institute of Allergy and Infectious Diseases ([…]), Bethesda, Md.; see Huang D W, Sherman B T, Lempicki R A. “Systematic and integrative analysis of large gene lists using DAVID Bioinformatics Resources,” Nature Protoc. 2009; 4(1):44-57; Huang D W, Sherman B T, Lempicki R A. “Bioinformatics enrichment tools: paths toward the comprehensive functional analysis of large gene lists,” Nucleic Acids Res. 2009; 37(1):1-13).
The term “Term” refers to a pathway related to a gene list. The terms “Genes” and “Count” denotes the numbers of genes included in the corresponding terms. The length of the square in the column for “Genes” indicates the number of genes included in the corresponding terms. % refers to a ratio of genes included in the corresponding terms to genes input as DEGs of dapson. These pathways were identified in terms of whether each of the predicted reaction as described in Example 2.1. is included therein.

With `Nc1ccc(S(=O)(=O)c2ccc(N)cc2)cc1` [dapsone, 4,4′-diaminodiphenylsulfone], the “enzyme reaction determined as induced in a cell by treatment” value is “ATP:creatine N-phosphotransferase reaction”.
